Biological target: APJ receptor (Homo sapiens (Human), UniProt P35414)
Test: [35S]GTPγS binding assay on membranes from CHO cells stably expressing human APJ receptor
Format: biochemical
Settings: membranes of CHO cells stably expressing human APJ receptor, means of several independent experiments, read-out: Activity hAPJ SPA EC50 IP
Procedure, shortened: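 EC50 values were obtained by non-linear regression of [35S]GTPγS (0.2 nM) binding after 90 min at RT, with nonspecific binding defined by 100 μM GTPγS. Reactions used human APJ–expressing CHO cell membranes on WGA PS beads in HEPES pH 7.5 buffer with 5 mM MgCl2, 200 mM NaCl, 3 μM GDP and 0.1% BSA.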

Sequence of APJ receptor (P35414 whole entry): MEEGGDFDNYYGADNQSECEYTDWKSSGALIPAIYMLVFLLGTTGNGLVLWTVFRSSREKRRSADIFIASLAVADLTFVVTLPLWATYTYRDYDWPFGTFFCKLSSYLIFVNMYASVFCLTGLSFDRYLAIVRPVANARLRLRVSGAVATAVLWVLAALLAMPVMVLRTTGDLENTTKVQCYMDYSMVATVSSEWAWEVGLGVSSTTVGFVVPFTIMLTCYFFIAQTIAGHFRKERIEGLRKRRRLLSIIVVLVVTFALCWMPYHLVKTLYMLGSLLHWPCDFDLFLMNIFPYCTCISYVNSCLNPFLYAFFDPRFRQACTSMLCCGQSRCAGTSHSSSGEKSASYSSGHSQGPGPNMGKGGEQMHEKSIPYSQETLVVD

SMILES	EC50 [nM]
COc1cccc(OC)c1-n1c(NS(=O)(=O)[C@@H](C)[C@H](O)c2cc3n(n2)CCCO3)nnc1-c1ccc(C)o1 (single isomer, unassigned) [Example 292.0, (1R,2S)-1-(6,7-Dihydro-5H-pyrazolo[5,1-b][1,3]oxazin-2-yl)-N-(4-(2,6-dimethoxyphenyl)-5-(5-methyl-2-furanyl)-4H-1,2,4-triazol-3-yl)-1-hydroxy-2-propanesulfonamide or (1S,2R)-1-(6,7-dihydro-5H-pyrazolo[5,1-b][1,3]oxazin-2-yl)-N-(4-(2,6-dimethoxyphenyl)-5-(5-methyl-2-furanyl)-4H-1,2,4-triazol-3-yl)-1-hydroxy-2-propanesulfonamide]	5.1
COc1cccc(OC)c1-n1c(NS(=O)(=O)[C@H](C)[C@@H](O)c2ccnc3c2OCCC3)nnc1-c1ccc(C)o1 (single isomer, unassigned) [Example 293.0, (1R,2S)-1-(3,4-Dihydro-2H-pyrano[3,2-b]pyridin-8-yl)-N-(4-(2,6-dimethoxyphenyl)-5-(5-methyl-2-furanyl)-4H-1,2,4-triazol-3-yl)-1-hydroxy-2-propanesulfonamide or (1S,2R)-1-(3,4-dihydro-2H-pyrano[3,2-b]pyridin-8-yl)-N-(4-(2,6-dimethoxyphenyl)-5-(5-methyl-2-furanyl)-4H-1,2,4-triazol-3-yl)-1-hydroxy-2-propanesulfonamide]	5.5
COc1cccc(OC)c1-n1c(NS(=O)(=O)[C@@H](C)[C@H](O)c2cccc3ccnn23)nnc1-c1ccc(C)o1 (single isomer, unassigned) [Example 296.0, (1R,2S)—N-(4-(2,6-Dimethoxyphenyl)-5-(5-methyl-2-furanyl)-4H-1,2,4-triazol-3-yl)-1-hydroxy-1-pyrazolo[1,5-a]pyridin-7-yl-2-propanesulfonamide or (1S,2R)—N-(4-(2,6-dimethoxyphenyl)-5-(5-methyl-2-furanyl)-4H-1,2,4-triazol-3-yl)-1-hydroxy-1-pyrazolo[1,5-a]pyridin-7-yl-2-propanesulfonamide]	6.8
COc1cccc(OC)c1-n1c(NS(=O)(=O)[C@@H](C)[C@H](O)c2cccc3nccn23)nnc1-c1ccc(C)o1 (single isomer, unassigned) [Example 299.0, (1R,2S)—N-(4-(2,6-Dimethoxyphenyl)-5-(5-methyl-2-furanyl)-4H-1,2,4-triazol-3-yl)-1-hydroxy-1-imidazo[1,2-a]pyridin-5-yl-2-propanesulfonamide or (1S,2R)—N-(4-(2,6-dimethoxyphenyl)-5-(5-methyl-2-furanyl)-4H-1,2,4-triazol-3-yl)-1-hydroxy-1-imidazo[1,2-a]pyridin-5-yl-2-propanesulfonamide]	11
COc1cccc(OC)c1-n1c(NS(=O)(=O)[C@@H](C)[C@@H](O)c2cc3ccccn3n2)nnc1-c1ccc(C)o1 (single isomer, unassigned) [Example 304.0, (1S,2S)—N-(4-(2,6-Dimethoxyphenyl)-5-(5-methyl-2-furanyl)-4H-1,2,4-triazol-3-yl)-1-hydroxy-1-pyrazolo[1,5-a]pyridin-2-yl-2-propanesulfonamide or (1R,2R)—N-(4-(2,6-dimethoxyphenyl)-5-(5-methyl-2-furanyl)-4H-1,2,4-triazol-3-yl)-1-hydroxy-1-pyrazolo[1,5-a]pyridin-2-yl-2-propanesulfonamide]	16
COc1cccc(OC)c1-n1c(NS(=O)(=O)[C@@H](C)[C@@H](O)c2cn3ccccc3n2)nnc1-c1ccc(C)o1 (single isomer, unassigned) [Example 308.0, (1S,2S)—N-(4-(2,6-Dimethoxyphenyl)-5-(5-methyl-2-furanyl)-4H-1,2,4-triazol-3-yl)-1-hydroxy-1-imidazo[1,2-a]pyridin-2-yl-2-propanesulfonamide or (1R,2R)—N-(4-(2,6-dimethoxyphenyl)-5-(5-methyl-2-furanyl)-4H-1,2,4-triazol-3-yl)-1-hydroxy-1-imidazo[1,2-a]pyridin-2-yl-2-propanesulfonamide]	33
COc1cccc(OC)c1-n1c(NS(=O)(=O)[C@@H](C)C2(O)COC2)nnc1-c1ccc(C)o1 (single isomer, unassigned) [Example 311.0, (1S)—N-(4-(2,6-Dimethoxyphenyl)-5-(5-methyl-2-furanyl)-4H-1,2,4-triazol-3-yl)-1-(3-hydroxy-3-oxetanyl)ethanesulfonamide or (1R)—N-(4-(2,6-dimethoxyphenyl)-5-(5-methyl-2-furanyl)-4H-1,2,4-triazol-3-yl)-1-(3-hydroxy-3-oxetanyl)ethanesulfonamide]	190
COc1cccc(OC)c1-n1c(NS(=O)(=O)[C@H]2C[C@@H](O)CN(c3cncc(C#N)n3)C2)nnc1-c1ccc(C)o1 (single isomer, unassigned) [Example 321.0, (3S,5R)-1-(6-Cyano-2-pyrazinyl)-N-(4-(2,6-dimethoxyphenyl)-5-(5-methyl-2-furanyl)-4H-1,2,4-triazol-3-yl)-5-hydroxy-3-piperidinesulfonamide or (3R,5S)-1-(6-cyano-2-pyrazinyl)-N-(4-(2,6-dimethoxyphenyl)-5-(5-methyl-2-furanyl)-4H-1,2,4-triazol-3-yl)-5-hydroxy-3-piperidinesulfonamide]	0.18
COc1cccc(OC)c1-n1c(NS(=O)(=O)[C@H]2C[C@@H](O)CN(c3ncc(F)cn3)C2)nnc1-c1ccc(C)o1 (single isomer, unassigned) [Example 323.0, (3S,5R)—N-(4-(2,6-Dimethoxyphenyl)-5-(5-methyl-2-furanyl)-4H-1,2,4-triazol-3-yl)-1-(5-fluoro-2-pyrimidinyl)-5-hydroxy-3-piperidinesulfonamide or (3R,5S)—N-(4-(2,6-dimethoxyphenyl)-5-(5-methyl-2-furanyl)-4H-1,2,4-triazol-3-yl)-1-(5-fluoro-2-pyrimidinyl)-5-hydroxy-3-piperidinesulfonamide]	0.2

Continued, values first:

EC50 [nM]	SMILES
5.8	COc1cccc(OC)c1-n1c(NS(=O)(=O)[C@H](C)[C@@H](O)c2cnc3ccccn23)nnc1-c1ccc(C)o1 (single isomer, unassigned) [Example 294.0, (1R,2S)—N-(4-(2,6-Dimethoxyphenyl)-5-(5-methyl-2-furanyl)-4H-1,2,4-triazol-3-yl)-1-hydroxy-1-imidazo[1,2-a]pyridin-3-yl-2-propanesulfonamide or (1S,2R)—N-(4-(2,6-dimethoxyphenyl)-5-(5-methyl-2-furanyl)-4H-1,2,4-triazol-3-yl)-1-hydroxy-1-imidazo[1,2-a]pyridin-3-yl-2-propanesulfonamide]
8.8	COc1cccc(OC)c1-n1c(NS(=O)(=O)[C@H](C)[C@@H](O)c2nccn2C)nnc1-c1ccc(C)o1 (single isomer, unassigned) [Example 297.0, (1S,2R)—N-(4-(2,6-Dimethoxyphenyl)-5-(5-methyl-2-furanyl)-4H-1,2,4-triazol-3-yl)-1-hydroxy-1-(1-methyl-1H-imidazol-2-yl)-2-propanesulfonamide or (1R,2S)—N-(4-(2,6-dimethoxyphenyl)-5-(5-methyl-2-furanyl)-4H-1,2,4-triazol-3-yl)-1-hydroxy-1-(1-methyl-1H-imidazol-2-yl)-2-propanesulfonamide]
11	COc1cccc(OC)c1-n1c(NS(=O)(=O)[C@H](C)[C@H](O)c2cscn2)nnc1-c1ccc(C)o1 (single isomer, unassigned) [Example 298.0, (1R,2R)—N-(4-(2,6-Dimethoxyphenyl)-5-(5-methyl-2-furanyl)-4H-1,2,4-triazol-3-yl)-1-hydroxy-1-(1,3-thiazol-4-yl)-2-propanesulfonamide or (1S,2S)—N-(4-(2,6-dimethoxyphenyl)-5-(5-methyl-2-furanyl)-4H-1,2,4-triazol-3-yl)-1-hydroxy-1-(1,3-thiazol-4-yl)-2-propanesulfonamide]
13	COc1cccc(OC)c1-n1c(NS(=O)(=O)[C@H](C)[C@@H](O)c2coc(C)n2)nnc1-c1ccc(C)o1 (single isomer, unassigned) [Example 303.0, (1R,2S)—N-(4-(2,6-Dimethoxyphenyl)-5-(5-methyl-2-furanyl)-4H-1,2,4-triazol-3-yl)-1-hydroxy-1-(2-methyl-1,3-oxazol-4-yl)-2-propanesulfonamide or (1S,2R)—N-(4-(2,6-dimethoxyphenyl)-5-(5-methyl-2-furanyl)-4H-1,2,4-triazol-3-yl)-1-hydroxy-1-(2-methyl-1,3-oxazol-4-yl)-2-propanesulfonamide]
28	COc1cccc(OC)c1-n1c(NS(=O)(=O)[C@H](C)[C@@H](O)c2cscn2)nnc1-c1ccc(C)o1 (single isomer, unassigned) [Example 307.0, (1S,2R)—N-(4-(2,6-Dimethoxyphenyl)-5-(5-methyl-2-furanyl)-4H-1,2,4-triazol-3-yl)-1-hydroxy-1-(1,3-thiazol-4-yl)-2-propanesulfonamide or (1R,2S)—N-(4-(2,6-dimethoxyphenyl)-5-(5-methyl-2-furanyl)-4H-1,2,4-triazol-3-yl)-1-hydroxy-1-(1,3-thiazol-4-yl)-2-propanesulfonamide]
61	COc1cccc(OC)c1-n1c(NS(=O)(=O)[C@H](C)[C@H](O)c2cscn2)nnc1-c1ccc(C)o1 (single isomer, unassigned) [Example 309.0, (1S,2S)—N-(4-(2,6-Dimethoxyphenyl)-5-(5-methyl-2-furanyl)-4H-1,2,4-triazol-3-yl)-1-hydroxy-1-(1,3-thiazol-4-yl)-2-propanesulfonamide or (1R,2R)—N-(4-(2,6-dimethoxyphenyl)-5-(5-methyl-2-furanyl)-4H-1,2,4-triazol-3-yl)-1-hydroxy-1-(1,3-thiazol-4-yl)-2-propanesulfonamide]
